The target of one assay is T1, HDAC7 (Homo sapiens, UniProt Q8WUI4).
T1 sequence (Q8WUI4 1-952): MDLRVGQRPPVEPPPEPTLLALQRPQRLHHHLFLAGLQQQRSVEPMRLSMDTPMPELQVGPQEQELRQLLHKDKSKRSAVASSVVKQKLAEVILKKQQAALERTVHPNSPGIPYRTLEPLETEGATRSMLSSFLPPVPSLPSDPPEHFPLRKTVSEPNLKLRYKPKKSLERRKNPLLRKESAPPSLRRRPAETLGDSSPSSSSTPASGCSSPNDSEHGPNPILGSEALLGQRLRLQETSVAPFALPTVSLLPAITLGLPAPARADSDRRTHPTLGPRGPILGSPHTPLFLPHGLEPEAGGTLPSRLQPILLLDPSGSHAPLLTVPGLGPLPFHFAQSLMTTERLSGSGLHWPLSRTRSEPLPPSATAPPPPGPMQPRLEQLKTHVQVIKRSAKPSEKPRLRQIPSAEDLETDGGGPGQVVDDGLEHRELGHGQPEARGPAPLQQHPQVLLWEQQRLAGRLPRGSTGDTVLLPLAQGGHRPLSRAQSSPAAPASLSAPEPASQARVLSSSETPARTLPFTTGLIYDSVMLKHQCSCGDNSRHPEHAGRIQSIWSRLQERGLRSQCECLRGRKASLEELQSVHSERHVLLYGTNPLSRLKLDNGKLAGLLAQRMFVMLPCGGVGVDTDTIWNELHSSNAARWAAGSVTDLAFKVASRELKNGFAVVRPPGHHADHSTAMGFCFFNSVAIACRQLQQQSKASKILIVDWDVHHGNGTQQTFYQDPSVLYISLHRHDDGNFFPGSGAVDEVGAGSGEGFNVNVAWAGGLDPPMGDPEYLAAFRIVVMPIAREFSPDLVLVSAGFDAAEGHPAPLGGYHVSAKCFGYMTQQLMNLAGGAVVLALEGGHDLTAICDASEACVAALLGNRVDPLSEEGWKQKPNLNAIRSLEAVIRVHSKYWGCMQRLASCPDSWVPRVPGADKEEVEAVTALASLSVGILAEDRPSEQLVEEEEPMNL
Description: Measurement of biochemical activities of HDAC (fluorescently-labeled acetylated lysine substrate). In outline: (§1)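 For both HDAC isoforms, fluorescent acetyl-lysine substrate ([…] in reaction) incubated with enzyme and compounds for 30 min at 37; developer then added for 15 min at room temperature. Fluorescence read at excitation 360 nm, emission 460 nm.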

For the next assay, the target named is HDAC1 (Homo sapiens, UniProt Q13547). The description is as above. To be noted: read-out: IC50 HDAC1. The essentials: as §1
Sequence of HDAC1 (Q13547 whole entry, species assumed): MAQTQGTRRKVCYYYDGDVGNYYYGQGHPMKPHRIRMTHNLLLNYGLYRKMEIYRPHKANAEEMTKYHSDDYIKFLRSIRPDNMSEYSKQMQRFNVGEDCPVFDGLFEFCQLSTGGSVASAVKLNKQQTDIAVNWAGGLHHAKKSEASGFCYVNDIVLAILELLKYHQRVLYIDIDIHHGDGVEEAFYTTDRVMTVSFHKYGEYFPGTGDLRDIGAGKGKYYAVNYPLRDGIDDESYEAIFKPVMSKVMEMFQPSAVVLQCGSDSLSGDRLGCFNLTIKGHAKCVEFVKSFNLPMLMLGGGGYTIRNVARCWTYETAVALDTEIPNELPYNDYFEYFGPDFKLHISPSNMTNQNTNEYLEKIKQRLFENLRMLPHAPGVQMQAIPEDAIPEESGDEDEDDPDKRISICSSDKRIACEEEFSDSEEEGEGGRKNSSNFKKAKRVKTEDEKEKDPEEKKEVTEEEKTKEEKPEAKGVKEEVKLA
Assay [1] concerns Hela (human cervical cancer cells). Description: MTT cancer cell growth inhibition. Type of assay: cell-based. To be noted: 72 h. In outline:
(§2)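 1500 cells/well, DMEM or 1640 + 10% FBS, overnight 37 °C/5% CO2; cpd 10^−5–10^−10 M final, triplicate, 72 h; 0.1% DMSO vehicle; MTT 4 h; DMSO solubilisation; A570; % survival.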

For assay [2], the system named is MCF-7 (human breast cancer cells). Description: MTT cancer cell growth inhibition. Particulars: MCF7, 72 h. Type of assay: cell-based. In outline:
as §2

The test system of assay [3] is HT1080 (human fibrosarcoma cells). Briefly: MTT cancer cell growth inhibition. Particulars: HT-1080, 72 h. Type of assay: cell-based. In outline: as §2
In assay [4] the test system is A549 (human lung cancer cells). Briefly: MTT cancer cell growth inhibition. Type of assay: cell-based. Particulars: 72 h. In outline: as §2
The test system of assay [5] is BGC-823 (human gastric cancer cells). Description: MTT cancer cell growth inhibition. It counts as cell-based. To be noted: 72 h, read-out: GI50 BGC823. In outline:
as §2

Another assay deals with PANC-1. Description: MTT cancer cell growth inhibition. Type of assay: cell-based. Particulars: Homo sapiens, 72 h. The essentials:
as §2

The subject of assay [6] is DU145 (human prostate cancer cells). Briefly: MTT cancer cell growth inhibition. It counts as cell-based. Particulars: DU-145, 72 h. The essentials:
as §2

Assay [7] deals with U937 (human leukemia cells). Briefly: MTT cancer cell growth inhibition. It counts as cell-based. To be noted: U-937, 72 h. In outline: as §2
For assay [8], the system named is MOLT-4 (human acute lymphoblastic leukemia cells). Briefly: MTT cancer cell growth inhibition. It counts as cell-based. Particulars: 72 h. In outline: as §2
A further assay deals with Incap. Description: MTT cancer cell growth inhibition. To be noted: 72 h. Type of assay: cell-based.

As for `CCCCCCCC(=O)SCC/C=C/[C@@H]1CC(=O)NCc2nc(cs2)C(=O)N[C@H](CC)C(=O)N[C@@H](C(C)C)C(=O)O1` [Compound 3-2], the “IC50 HDAC7” value on HDAC7 is listed as “no activity”. Also, the IC50 (in general, the concentration that gives 50% inhibition) on HDAC1 is less than 10 µM. Further, the GI50 (as a rule, the concentration at which growth is held to half of that of the control) in assay [1] is 0.6 µM; in assay [2], 0.1 µM; in [3], 1.35 µM; in assay [4], 0.36 µM; in [5], 1.02 µM; with PANC-1, 1.23 µM. Besides, the GI50 in assay [6] is 1.06 µM; in assay [7], 5.26 µM; in [8], 1.06 µM; with Incap it was 1.42 µM.

Turning to `C/C=C1\NC(=O)C2=NC(=NC2)CNC(=O)C[C@@H](/C=C/CCSC(=O)CCCCCCC)OC(=O)[C@H](C(C)C)NC1=O` [Compound 2-5], the “IC50 HDAC7” value at HDAC7 was “no activity”. Besides, on HDAC1, the IC50 is less than 10 µM. Besides, the GI50 is 12 µM in [1]; 26 µM in [2]; 1.02 µM in [3]; 2.13 µM in assay [4]; 20.6 µM in assay [5]; 26.4 µM in the assay on PANC-1. For the same compound, the GI50 in assay [6] amounted to 5.46 µM; in assay [7] it was 21 µM; in assay [8], 1.03 µM; in the assay with Incap it was 0.56 µM.

(Values after patent publication US8933195B2, “Histone deacetylase inhibitors and synthetic method thereof and use thereof in manufacture of medicaments” (Nanjing Yoko Biomedical R & D Ltd., priority 2011, dated 2015).)
